Tests used:
Assay in all cases: Cell proliferation inhibition experiment, CellTiter-Glo (CTG) method
Format in all cases: cell-based
PC-9 = PC-9 cells, 3 days
Procedure, shortened: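 Cells in log-phase growth (viability above 90% by trypan blue) were seeded at 90 μL per well in black-walled, clear-bottom 96-well plates and incubated overnight at 37° C., 5% CO2. A T0 plate was read the next day. Test compounds were added at nine concentrations in triplicate with a solvent control. Viability was measured by CellTiter-Glo luminescence on EnVision, and IC50 came from non-linear S-curve fitting in GraphPad Prism 5.0.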

NCI-H1975 = conditions: for IC50: NCI-H1975 cells, CTG, 3 days; for A-431/NCI-H1975 Selectivity: ratio of A-431 IC50 to NCI-H1975 IC50
Procedure, shortened: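 NCI-H1975 cells with viability above 90% by trypan blue were seeded at 90 μL per well in black 96-well plates and incubated overnight at 37° C., 5% CO2. Compounds were added at nine concentrations in triplicate, and viability was measured with CellTiter-Glo luminescence on EnVision. IC50 came from non-linear S-curve fitting in GraphPad Prism 5.0.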

A-431 = A-431 cells, 3 days
Procedure, shortened: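 Log-phase cells (viability >90%) were plated and incubated overnight, then dosed in triplicate across nine 3-fold concentrations. The top dose was 30 μM on A-431 and 1.111 μM on NCI-H1975 and PC-9. Survival after 3 days was measured by CellTiter-Glo and IC50 derived by non-linear regression.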

Compound	IC50 (PC-9; Homo sapiens, PC-9, 72 h) [nM]	IC50 (NCI-H1975; Homo sapiens, NCI-H1975, 72 h) [nM]	IC50 (A-431; Homo sapiens, A-431, 72 h) [nM]	IC50 (PC-9) [nM]	IC50 (NCI-H1975) [nM]	IC50 (A-431) [nM]	A-431/NCI-H1975 Selectivity (NCI-H1975)
C=CC(=O)Nc1cc(Nc2cc(-c3cc4cnn(C)c4cc3F)ncn2)c(OC)cc1N1C[C@@H](C)N(C)[C@@H](C)C1 [compound 192]	33	47	1840	–	–	–	39.2
C=CC(=O)Nc1cc(Nc2cc(-c3cc4cnn(C)c4cc3F)ncn2)c(OC)cc1N1CCC(N(CC)CC)CC1 [compound 193]	30.9	52.8	1480	–	–	–	28.0
C=CC(=O)Nc1cc(Nc2cc(-c3cc4cnn(C)c4cc3F)ncn2)c(OC)cc1OCCN(C)C [compound 194]	45.8	75.2	1640	–	–	–	21.8
C=CC(=O)Nc1cc(Nc2cc(-c3cc4cnn(C)c4cc3F)ncn2)c(OC)cc1N(C)C1CCN(C)C1 (stereo not drawn) [compound 195]	19.5	20.4	1440	–	–	–	70.5
C=CC(=O)Nc1cc(Nc2cc(-c3ccc4cnn(C)c4c3)ncn2)c(OC)cc1N(C)CCN(C)C(C)C [compound 196]	20.7	36.4	2020	–	–	–	55.4
C=CC(=O)Nc1c(N(C)CCN(C)C(C)C)cc(OC)c(Nc2cc(-c3ccc4c(cnn4C)c3)ncn2)c1F [compound 197]	13.4	20.7	1350	–	–	–	65.1
C=CC(=O)Nc1c(N(C)CCN(C)C(C)C)cc(OC)c(Nc2cc(-c3ccc4cnn(C)c4c3)ncn2)c1F [compound 198]	65.8	77.1	2340	–	–	–	30.4
C=CC(=O)Nc1cc(Nc2cc(-c3ccc4cnn(C)c4c3)ncn2)c(OC(F)F)cc1N(C)CCN(C)C(C)C [compound 199]	24.7	37.8	1980	–	–	–	52.3
C=CC(=O)Nc1c(N(C)CCN(C)CC)cc(OC)c(Nc2cc(-c3ccc4c(cnn4C)c3)ncn2)c1F [compound 200]	27	14.2	984	–	–	–	–
C=CC(=O)Nc1c(N(C)CCN(C)CC)cc(OC)c(Nc2cc(-c3ccc4cnn(C)c4c3)ncn2)c1F [compound 201]	21.1	24.5	1340	–	–	–	54.9
C=CC(=O)Nc1cc(Nc2cc(-c3ccc4c(cnn4C)c3)ncn2)c(OC)cc1N1CCC(N2CCC(OC)C2)CC1 (stereo not drawn) [compound 202]	12.7	10.7	798	–	–	–	74.6
C=CC(=O)Nc1cc(Nc2cc(-c3ccc4c(cnn4C)c3)ncn2)c(OC)cc1N1CCC(N2CCC(OC)CC2)CC1 [compound 204]	15.8	15.7	891	–	–	–	56.7
C=CC(=O)Nc1cc(Nc2cc(-c3ccc4cnn(C)c4c3)ncn2)c(OC)cc1N1CCC(N2CCC(OC)CC2)CC1 [compound 205]	7.6	13	885	–	–	–	–
C=CC(=O)Nc1cc(Nc2cc(-c3ccc4cnn(C)c4c3)ncn2)c(OC)cc1N1CCC(N2CC(OC)C2)CC1 [compound 207]	5.6	10.2	895	–	–	–	87.7
C=CC(=O)Nc1cc(Nc2cc(-c3ccc4c(cnn4C)c3)ncn2)c(OC)cc1N1CCC(N2CCOCC2)CC1 [compound 208]	–	–	–	10.7	20	1100	54.8
C=CC(=O)Nc1cc(Nc2cc(-c3ccc4cnn(C)c4c3)ncn2)c(OC)cc1N1CCC(C2CCOCC2)CC1 [compound 209]	12	24.7	1620	–	–	–	65.7
C=CC(=O)Nc1cc(Nc2cc(-c3ccc4cnn(C)c4c3)ncn2)c(OC)cc1N1CCC(N2CCN(C3COC3)CC2)CC1 [compound 211]	7.4	11.3	1040	–	–	–	–
C=CC(=O)Nc1cc(Nc2cc(-c3ccc4c(cnn4C)c3)ncn2)c(OC)cc1N1CCC(N2CCCC2=O)CC1 [compound 212]	54.7	71.8	2030	–	–	–	28.3
C=CC(=O)Nc1cc(Nc2cc(-c3ccc4c(cnn4C)c3)ncn2)c(OC)cc1N(C)C1CCN(CC)CC1 [compound 226]	54.6	68.2	2390	–	–	–	35.0
C=CC(=O)Nc1cc(Nc2cc(-c3ccc4cnn(C)c4c3)ncn2)c(OC)cc1N(C)C1CCN(CC)CC1 [compound 227]	90.7	79.6	2440	–	–	–	30.6
C=CC(=O)Nc1cc(Nc2nccc(-c3ccc4c(cnn4C)c3)n2)c(OC)cc1N(C)C1CCN(C)CC1 [compound 231]	76.5	96.8	1730	–	–	–	17.8

Now from value to compound, other results behind:

IC50 (PC-9; Homo sapiens, PC-9, 72 h) [nM]	IC50 (NCI-H1975; Homo sapiens, NCI-H1975, 72 h) [nM]	IC50 (A-431; Homo sapiens, A-431, 72 h) [nM]	IC50 (PC-9) [nM]	IC50 (NCI-H1975) [nM]	IC50 (A-431) [nM]	Compound	A-431/NCI-H1975 Selectivity (NCI-H1975)
55.6	74.9	2060	–	–	–	C=CC(=O)Nc1cc(Nc2cc(-c3ccc4cnn(C)c4c3)ncn2)c(OC)cc1N1CCC(N2CCCC2=O)CC1 [compound 213]	27.4
16.7	19.7	1530	–	–	–	C=CC(=O)Nc1cc(Nc2cc(-c3ccc4c(cnn4C)c3)ncn2)c(OC)cc1N1CCN(C2CCOC2)CC1 (stereo not drawn) [compound 214]	77.6
15.4	18.4	1440	–	–	–	C=CC(=O)Nc1cc(Nc2cc(-c3ccc4cnn(C)c4c3)ncn2)c(OC)cc1N1CCN(C2CCOC2)CC1 (stereo not drawn) [compound 215]	78.1
12.8	13.6	1220	–	–	–	C=CC(=O)Nc1cc(Nc2cc(-c3ccc4c(cnn4C)c3)ncn2)c(OC)cc1N1CCN(C2CCC(OC)C2)CC1 (stereo not drawn) [compound 216]	90.0
13.6	16.9	1400	–	–	–	C=CC(=O)Nc1cc(Nc2cc(-c3ccc4cnn(C)c4c3)ncn2)c(OC)cc1N1CCN(C2CCC(OC)C2)CC1 (stereo not drawn) [compound 217]	82.8
9.2	21.2	1830	–	–	–	C=CC(=O)Nc1cc(Nc2cc(-c3ccc4c(cnn4C)c3)ncn2)c(OC)cc1N1CCN(C2COC2)CC1 [compound 218]	86.6
45.9	49.4	2510	–	–	–	C=CC(=O)Nc1cc(Nc2cc(-c3ccc4cnn(C)c4c3)ncn2)c(OC)cc1N1CCN(C2COC2)CC1 [compound 219]	50.8
55.4	60.7	2430	–	–	–	C=CC(=O)Nc1cc(Nc2cc(-c3ccc4c(cnn4C)c3)ncn2)c(OC)cc1N(C)C1CCN(C2CCOCC2)CC1 [compound 220]	40.1
96	70.3	2440	–	–	–	C=CC(=O)Nc1cc(Nc2cc(-c3ccc4cnn(C)c4c3)ncn2)c(OC)cc1N(C)C1CCN(C2CCOCC2)CC1 [compound 221]	34.7
20.7	13.6	983	–	–	–	C=CC(=O)Nc1cc(Nc2cc(-c3ccc4c(cnn4C)c3)ncn2)c(OC)cc1N(C)C1CCN(CCOC)C1 (stereo not drawn) [compound 222]	72.3
40.6	40.5	2320	–	–	–	C=CC(=O)Nc1cc(Nc2cc(-c3ccc4cnn(C)c4c3)ncn2)c(OC)cc1N(C)C1CCN(CCOC)C1 (stereo not drawn) [compound 223]	57.4
27.1	15.8	1090	–	–	–	C=CC(=O)Nc1cc(Nc2cc(-c3ccc4c(cnn4C)c3)ncn2)c(OC)cc1N(C)C1CCN(CCOC)CC1 [compound 224]	69.3
67.2	75.1	2470	–	–	–	C=CC(=O)Nc1cc(Nc2cc(-c3ccc4cnn(C)c4c3)ncn2)c(OC)cc1N(C)C1CCN(CCOC)CC1 [compound 225]	32.9
35.7	65.7	1580	–	–	–	C=CC(=O)Nc1cc(Nc2nccc(-c3ccc4c(cnn4C)c3)n2)c(OC)cc1N1CCN(C)CC1 [compound 228]	24.1
68.1	93.8	1620	–	–	–	C=CC(=O)Nc1cc(Nc2nccc(-c3ccc4c(cnn4C)c3)n2)c(OC)cc1N1C[C@@H](C)N(C)[C@@H](C)C1 [compound 229]	17.3
59.4	68.2	1980	–	–	–	C=CC(=O)Nc1cc(Nc2nccc(-c3ccc4c(cnn4C)c3)n2)c(OC)cc1N1CCC(N2CCN(C)CC2)CC1 [compound 230]	29.1
82.7	90.2	2560	–	–	–	C=CC(=O)Nc1cc(Nc2nccc(-c3ccc4c(cnn4C)c3)n2)c(OC)cc1N1CCN(CCOC)CC1 [compound 232]	28.4
54.9	71.4	2440	–	–	–	C=CC(=O)Nc1cc(Nc2nccc(-c3ccc4c(cnn4C)c3)n2)c(OC)cc1N1CCC(N2C[C@@H](C)N(C)[C@@H](C)C2)CC1 [compound 233]	34.1
